The values that follow come from PMC3906059, “Activation and Inhibition of TMEM16A Calcium-Activated Chloride Channels” (PLoS ONE, 2014).

Structures are written as SMILES. Entries after “also recorded” stand apart in the source; their conditions may differ. Like-named read-outs stand apart in the source and are kept apart here. Some results are limits rather than exact numbers.

Assay [1] deals with T1, TMEM16A (ANO1) (Mus musculus, UniProt Q8BHY3).
T1 construct: We subcloned the coding region of the cDNA into pEGFP-N3 vector; expressed in transfected cells; host or cells: HEK293 cells
T1 sequence (Q8BHY3 1-956 isoform Q8BHY3-2): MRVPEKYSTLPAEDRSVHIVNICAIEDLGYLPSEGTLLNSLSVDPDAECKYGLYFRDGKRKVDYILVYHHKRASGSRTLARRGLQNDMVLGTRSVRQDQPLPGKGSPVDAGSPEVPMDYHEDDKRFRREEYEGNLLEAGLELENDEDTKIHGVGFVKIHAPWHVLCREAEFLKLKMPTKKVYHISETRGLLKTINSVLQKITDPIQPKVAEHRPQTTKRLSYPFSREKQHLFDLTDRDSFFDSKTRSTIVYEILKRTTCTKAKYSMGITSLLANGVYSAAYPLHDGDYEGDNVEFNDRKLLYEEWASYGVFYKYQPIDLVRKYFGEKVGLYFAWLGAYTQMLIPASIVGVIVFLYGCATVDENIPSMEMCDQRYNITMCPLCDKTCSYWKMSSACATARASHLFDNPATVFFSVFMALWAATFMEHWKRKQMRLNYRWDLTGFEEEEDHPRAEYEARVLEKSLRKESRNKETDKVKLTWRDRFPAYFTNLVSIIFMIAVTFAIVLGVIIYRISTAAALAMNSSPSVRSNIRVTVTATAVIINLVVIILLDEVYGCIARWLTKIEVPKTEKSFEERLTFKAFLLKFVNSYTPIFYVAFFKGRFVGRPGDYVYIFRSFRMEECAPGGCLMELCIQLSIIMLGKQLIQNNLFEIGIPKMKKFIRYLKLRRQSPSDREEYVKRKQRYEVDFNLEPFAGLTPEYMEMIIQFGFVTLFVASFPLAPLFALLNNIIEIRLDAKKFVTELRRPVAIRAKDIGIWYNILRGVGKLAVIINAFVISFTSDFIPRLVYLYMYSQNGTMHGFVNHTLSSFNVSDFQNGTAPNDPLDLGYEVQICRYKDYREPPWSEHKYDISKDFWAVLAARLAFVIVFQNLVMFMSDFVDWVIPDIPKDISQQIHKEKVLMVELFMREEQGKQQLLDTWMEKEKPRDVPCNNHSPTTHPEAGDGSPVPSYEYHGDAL
Put plainly: Activation of ANO1 current by divalent cations, excised inside-out patch with fast solution exchange. It counts as cell-based. An excerpt: (§1) The mouse TMEM16A cDNA (NCBI reference sequence: NM_001242349.1) encoding ANO1 CaCC was a generous gift from Dr. Lily Jan. We subcloned the coding region of the cDNA into pEGFP-N3 vector (Clontech Laboratories, Inc.), resulting in a construct in which an enhanced green fluorescent protein (eGFP) was attached to the C-terminus of the ANO1 protein. The sequence was confirmed by commercially-available DNA sequencing service. This eGFP-attached ANO1 cDNA construct was used for channel expression throughout the study. The cDNA was transfected into human embryonic kidney (HEK) 293 cells using lipofectamine transfection methods, [42], [43]. A fluorescent light source and a GFP filter set (Chroma Technology Co.) in the DM IRB inverted microscope (Leica Microsystems) were used to identify transfected cells expressing channel proteins. Electrophysiological experiments were performed ∼24 to 72 hours after transfection.
(§2) All chemicals were reagent grade. Regular salts (such as NaCl, NaOH, CaCl2, SrCl2, BaCl2, MgCl2 or sodium salts of various anions) were purchased from Fisher Chemicals (Fair Lawn, NJ), J. T. Baker (Phillipsburg, NJ) or Sigma Chemicals Co. (St. Louis, MO). EGTA, HEPES, and NFA were from Sigma Chemicals Co. Excised inside-out patch-clamp recordings were performed throughout the study. The extracellular (pipette) solution in all experiments contained: 140 mM NaCl, 10 mM HEPES, 0.1 mM EGTA, pH = 7.4. The regular intracellular solution contained 10 mM HEPES and 140 mM sodium salt of Cl^− or other anions. Various concentrations of divalent cations were made by adding certain total concentrations of divalent cations (Cl^− salts) into the solution containing a defined concentration of EGTA. We defined the pipette solution as the “zero-Ca^2+” solution. A solution containing a saturating [Ca^2+] was made by adding 0.12 mM total [Ca^2+] into the aforementioned zero-Ca^2+ solution, resulting in a solution containing ∼20 µM free [Ca^2+]. For making non-saturating [Ca^2+] solutions, the solutions included 1 mM EGTA. To make solutions containing Sr^2+ and Ba^2+, only 0.1 mM EGTA was used. The pH of all solutions was adjusted to 7.4.
Because of weak Mg^2+-EGTA binding, we referred the total [Mg^2+] as the free [Mg^2+]. The free [Ca^2+], [Sr^2+], and [Ba^2+] were calculated using the MaxChelator program (Ver1.2) kindly provided by Chris Patton from the Stanford University. This program was developed based on the binding constants available in the National Institute of Standard and Technology (NIST) between EGTA and these three divalent cations. Table S1, Table S2, and Table S3 list respectively the calculated free [Ca^2+], [Sr^2+], and [Ba^2+] used in this study. All added divalent cations were Cl^− salts. […] For example, in a solution containing 5 mM, 10 mM or 30 mM MgCl2, only 130 mM, 120 mM or 80 mM of NaCl, respectively, were added to the solution.
The patch-clamp recording pipettes were fabricated from borosilicate glass capillaries (World Precision Instruments) using PP830 electrode puller (Narishige International). When filled with the pipette solution, the electrode resistance was ∼1.5–3 MΩ. The experiments were carried out at room temperature (20–23°C) using the Axopatch 200B amplifier controlled by the Digidata I/O converter and the pClamp9 software (Axon Instruments/Molecular Devices).
Solution exchange was achieved using the SF-77 solution exchanger (Warner Instruments). After the excised inside-out patch mode was established, the tip of the patch pipette was positioned at the exit of the solution-delivery pipes of the SF-77 solution exchanger. The switch of solution pipes was controlled by a digital signal delivered from the Digidata 1320 digitizing board. […]

The subject of a further assay is TMEM16A. Particulars: cited from earlier work.
The target in assay [2] is T1, TMEM16A (ANO1). Briefly: Mg^2+ inhibition of Ca^2+-induced ANO1 current and shift of the Ca^2+-activation curve (Schild plot). The assay is classed as cell-based.
From the text: as §1
All chemicals were reagent grade. Regular salts (such as NaCl, NaOH, CaCl2, SrCl2, BaCl2, MgCl2 or sodium salts of various anions) were purchased from Fisher Chemicals (Fair Lawn, NJ), J. T. Baker (Phillipsburg, NJ) or Sigma Chemicals Co. (St. Louis, MO). EGTA, HEPES, and NFA were from Sigma Chemicals Co. Excised inside-out patch-clamp recordings were performed throughout the study. The extracellular (pipette) solution in all experiments contained: 140 mM NaCl, 10 mM HEPES, 0.1 mM EGTA, pH = 7.4. The regular intracellular solution contained 10 mM HEPES and 140 mM sodium salt of Cl^− or other anions. Various concentrations of divalent cations were made by adding certain total concentrations of divalent cations (Cl^− salts) into the solution containing a defined concentration of EGTA. We defined the pipette solution as the “zero-Ca^2+” solution. A solution containing a saturating [Ca^2+] was made by adding 0.12 mM total [Ca^2+] into the aforementioned zero-Ca^2+ solution, resulting in a solution containing ∼20 µM free [Ca^2+]. For making non-saturating [Ca^2+] solutions, the solutions included 1 mM EGTA. […]
Because of weak Mg^2+-EGTA binding, we referred the total [Mg^2+] as the free [Mg^2+]. The free [Ca^2+], [Sr^2+], and [Ba^2+] were calculated using the MaxChelator program (Ver1.2) kindly provided by Chris Patton from the Stanford University. […] Table S1, Table S2, and Table S3 list respectively the calculated free [Ca^2+], [Sr^2+], and [Ba^2+] used in this study. […]
Solution exchange was achieved using the SF-77 solution exchanger (Warner Instruments). […] The recorded current is normally time-independent following fast solution exchange, but on infrequent occasions there is a slow increase of current. Therefore, we measured the current amplitude at the end of the solution exchange when the current amplitude reaches a steady-state maximal value. […]

Assay [3] addresses T1, TMEM16A (ANO1). Briefly: NFA inhibition of ANO1 current, intracellular application to inside-out patch. The assay is classed as cell-based.
Assay [4] concerns the target T1, TMEM16A (ANO1). The assay is described as above. The assay is classed as cell-based.
From the text: as §1, §2
The inhibition of ANO1 by intracellular NFA was achieved by directly applying NFA to the intracellular side of the membrane patch using fast-solution exchange. Except where indicated, the ANO1 current was induced by saturating [Ca^2+] followed by the application of various [NFA] in the solution containing the same [Ca^2+]. The steady-state current (I) at the end of NFA application was divided by the current in the absence of NFA (I0) before and after the drug application to obtain the percentage of current remained in the presence of NFA.
For dose-response inhibition by NFA, the current (I) measured at the end of the NFA application was normalized to the current amplitude in the absence of NFA (I0). The ratio I/I0 was then plotted against [NFA], and the concentration-dependent inhibition curve was fitted to a Langmuir function (eq. 2), I/I0 = 1/(1+ [NFA]/K1/2), where K1/2 is the half-inhibition [NFA].
For comparing two treatments that might differentially affect the apparent affinity of the NFA inhibition (for example, Fig. 8 C & D), the summation of the residual error (namely, the residual sum of squares of the error) from the curve fitting of each treatment was compared to the residual error from the curve fitting of the pooled data. If the former was statistically smaller than the latter using F test, the two regression curves would be considered different. The statistically significant level (α) was set at 0.05.
This is another data set of the same source.

The next assay deals with CaCC of Xenopus oocytes. Set-up: method as in PMID 11279188. The conditions noted are these: cited from earlier work.
Where [5] appears, read: Schild plot from K1/2,Ca in 0, 2, 5 and 10 mM Mg^2+.

As for `[Ca+2]` [Ca^2+], the “difference of K1/2,Ca between +40 mV and −40 mV” value on TMEM16A (ANO1) [1] came to 100 nM. Also, the “fraction of saturated current activated” value on TMEM16A (ANO1) [1] (666 nM [Ca^2+], ±40 mV, in the presence or absence of 20 µM NFA) was approximately 90%. The EC50 is 0.466 µM at TMEM16A (ANO1) [1] (+40 mV, fit to Hill equation (eq. 1), normalized to Is induced by 20 µM free Ca^2+, read-out: half-activation [Ca^2+] (K1/2,Ca)); approximately 0.5 µM on TMEM16A (ANO1) [1] (values covering +40 and −40 mV, read-out: K1/2 of ANO1 activation); 0.063 µM in the assay with TMEM16A (+80 mV, read-out: K1/2,Ca); less than 0.1 µM with TMEM16A (−60 mV, lower end of literature range, read-out: half-effective concentration of Ca^2+ (K1/2,Ca)); more than 2 µM in the assay with TMEM16A (−60 mV, upper end of literature range, read-out: half-effective concentration of Ca^2+ (K1/2,Ca)). In addition, the “maximal ANO1 current activated by saturating divalent cation compared with Is induced by saturating [Ca^2+]” value at TMEM16A (ANO1) [1] (Is induced by 20 µM Ca^2+, ±40 mV) was “activated the channel to the same maximal current level”. The “Hill coefficient (n) of dose-response activation curve” value at TMEM16A (ANO1) [1] (values covering +40 and −40 mV) is approximately 4.

Turning to `[Mg+2]` [Mg^2+], the “ANO1 activation by Mg^2+” value on TMEM16A (ANO1) [1] (up to 30 mM [Mg^2+], intracellular side) was “no ANO1 activation was detected; also recorded: unable to detect ANO1 current”. In addition, on TMEM16A (ANO1) [2] (ANO1 current induced by 0.666 µM free Ca^2+, fit to eq. 2, read-out: apparent half-inhibition concentration), the IC50 came out at 5400 µM. Also, at TMEM16A (ANO1) [2] (setting [5]), the “[Mg^2+] that increases K1/2,Ca 2-fold (Schild plot)” value is approximately 2.5 mM and the “pMg at crossing of the horizontal axis of the Schild plot” value was approximately 2.6. In addition, the “Mg^2+ inhibition of ANO1 current activated by saturating [Ca^2+]” value on TMEM16A (ANO1) [2] (saturating [Ca^2+], 5 mM Mg^2+ (Fig. 4 C)) is given as “not observed; also recorded: not inhibited”.

On to `O=C(O)c1cccnc1Nc1cccc(C(F)(F)F)c1` [NFA, niflumic acid], for which the IC50 on TMEM16A (ANO1) [3] (symmetrical 4 mM NaCl (136 mM Na-Glutamate added), −40 mV, read-out: K1/2 of NFA inhibition) was determined as 7.9 µM; on TMEM16A (ANO1) [4] (140 mM intracellular NaBr, pipette 140 mM Cl^−, read-out: K1/2 of NFA inhibition) it was 39.2 ± 1.1 µM; on TMEM16A (ANO1) [4] (140 mM intracellular NaCl, pipette 140 mM Cl^−, read-out: K1/2 of NFA inhibition), 17.9 ± 1.1 µM; on TMEM16A (ANO1) [4] (140 mM intracellular NaI, pipette 140 mM Cl^−, read-out: K1/2 of NFA inhibition), 85.5 ± 3.6 µM; on TMEM16A (ANO1) [4] (140 mM intracellular NaNO3, pipette 140 mM Cl^−, read-out: K1/2 of NFA inhibition), 54.8 ± 3.4 µM; on TMEM16A (ANO1) [4] (140 mM intracellular NaSCN, pipette 140 mM Cl^−, read-out: K1/2 of NFA inhibition), 189 ± 7.4 µM. The IC50 on TMEM16A (ANO1) [4] (current activated by 404 µM [Ba^2+], Vm = −20 mV, read-out: K1/2 of NFA inhibition) was 22.6 µM; on TMEM16A (ANO1) [4] (current induced by 20 µM Ca^2+, −40, −20, +20, +40 mV, read-out: half-blocking concentration (K1/2) of NFA) it was 18 to 20 µM; on TMEM16A (ANO1) [4] (symmetrical 140 mM NaCl, −40 mV, read-out: K1/2 of NFA inhibition) it was 18.4 µM. At TMEM16A (ANO1) [3] (symmetrical solutions), the “increase of apparent affinity of NFA inhibition in 4 mM [Cl^−] compared with 140 mM [Cl^−]” value is “more than 2 fold”. In addition, the “effect of NFA on sensitivity of ANO1 to Ca^2+ activation” value on TMEM16A (ANO1) [4] (20 µM NFA, current induced by 666 nM Ca^2+ at ±40 mV) was “not reduced”. Further, on TMEM16A (ANO1) [4] (between −40 mV and +40 mV), the “voltage dependence of K1/2 of NFA inhibition” value was “not voltage dependent”. Moreover, the “sideness of the block” value in the assay on CaCC of Xenopus oocytes is “from intracellular and extracellular sides with similar affinities”.
